Assays:
[1] = cited from earlier work
[2] = test system: pyresis induced by LPS from E. coli in rats; experiment: Anti-pyretic effect, pyresis model induced by LPS from E. coli; assay type: in vivo, rat; settings: 15 mg/Kg, from the first 60 minutes
Experimental: After the assessment of the anti-nociceptive and anti-inflammatory effects, the anti-pyretic effect was assessed for increasing doses of the combination IBU:L-ARG in a ratio IBU/L-ARG=3.26, in comparison with the administration of an agent that is well known as capable of control fever, such as acetaminophen (15 mg/Kg) (see FIG. 5).

[3] = test system: inflammation induced with carrageenan in rats; experiment: Anti-inflammatory effect, inflammation model by carrageenan; assay type: in vivo, rat; settings: 10 mg/Kg, each 8 hours, from the third hour
Experimental: From the results of the previous study, and following a model where inflammation is induced with carrageenan administration for generating a bruise, we determined the anti-inflammatory effect of the L-ARG-IBU combination, in comparison with the administration of a treatment of known effects (positive control: diclofenac 10 mg/Kg), and of a control group, administered each 8 hours for a period of 48 hours. This model presented a maximum inflammation level of towards 6-8 hours, after which inflammation starts to decrease gradually.

[4] = in vivo; cited from earlier work

Which solubility in water [1] does the source give for CC(C)Cc1ccc(C(C)C(=O)O)cc1 (stereo not shown) [Ibuprofen] here?
The solubility in water was “relatively insoluble in water”.

For CC(=O)Nc1ccc(O)cc1 [acetaminophen], which “temperature after drug administration” value [2] is on record?
The value was “temperature returned to basal levels”.

With O=C(O)Cc1ccccc1Nc1c(Cl)cccc1Cl [diclofenac] as the compound, how does the development of edema [3] read?
Its development of edema is “reduced the development of edema”.

For ibuprofen arginate, which “onset of the analgesic action compared to ibuprofen alone” value [4] is on record?
The value was “fast onset of the analgesic action”.

Reference: patent publication US9186342B2, “Combination of an NSAID and an amino acid” (LABORATORIOS SENOSIAIN S.A. DE C.V., priority 2010, dated 2015)
